≈ marks a conversion by molar mass, not a printed value.
Legend:
Assay in all cases: MIC, agar dilution
Format in all cases: cell-based
E. Faecalis (EFAE 9217) = conditions: Enterococcus faecalis, E. Faecalis 9217, overnight at 35° C.
Procedure: (§1) The in vitro MICs of test compounds were determined by a standard agar dilution method. A stock drug solution of each analog was prepared in the preferred solvent, usually DMSO:H2O (1:3). Serial 2-fold dilutions of each sample are made using 1.0 ml aliquots of sterile distilled water. To each 1.0 ml aliquot of drug was added 9 ml of molten Mueller Hinton agar medium. The drug-supplemented agar was mixed, poured into 15×100 mm petri dishes, and allowed to solidify and dry prior to inoculation.
(§2) Vials of each of the test organisms are maintained frozen in the vapor phase of a liquid nitrogen freezer. Test cultures are grown overnight at 35° C. on the medium appropriate for the organism. Colonies are harvested with a sterile swab, and cell suspensions are prepared in Trypticase Soy broth (TSB) to equal the turbidity of a 0.5 McFarland standard. A 1:20 dilution of each suspension was made in TSB. The plates containing the drug supplemented agar are inoculated with a 0.001 ml drop of the cell suspension using a Steers replicator, yielding approximately 10^4 to 10^5 cells per spot. The plates are incubated overnight at 35° C.
(§3) Following incubation the Minimum Inhibitory Concentration (MIC μg/ml), the lowest concentration of drug that inhibits visible growth of the organism, was read and recorded.

S. pneumonia (SPNE 9912) = conditions: S. pneumonia 9912, overnight at 35° C.
Procedure: as §1, §2, §3

[1] = test system: S. epidermidis (SEPI 30593); conditions: Staphylococcus epidermidis, S. epidermidis 30593, overnight at 35° C.
Procedure: as §1, §2, §3

[2] = test system: H. influenzae (HINF 31810); conditions: Haemophilus influenzae, H. influenzae 31810, overnight at 35° C.
Procedure: as §1, §2, §3

S. pyogenes (SPYO 152) = conditions: Streptococcus pyogenes, S. pyogenes 152, overnight at 35° C.
Procedure: as §1, §2, §3

[3] = test system: H. influenzae (HINF 30063); conditions: Haemophilus influenzae, H. influenzae 30063, overnight at 35° C.
Procedure: as §1, §2, §3

S. aureus (SAUR 9213) = conditions: Staphylococcus aureus, S. aureus 9213, overnight at 35° C.
Procedure: as §1, §2, §3

E. Faecium (EFAE 12712) = conditions: Enterococcus faecium, E. Faecium 12712, overnight at 35° C.
Procedure: as §1, §2, §3

S. aureus (SAUR 31583) = conditions: Staphylococcus aureus, S. aureus 31583, overnight at 35° C.
Procedure: as §1, §2, §3

[4] = test system: M. catarrhalis (MCAT 30607); conditions: Moraxella catarrhalis, M. catarrhalis 30607, overnight at 35° C.
Procedure: as §1, §2, §3

Structure (SMILES) | MIC (E. Faecalis (EFAE 9217)) | MIC (S. pneumonia (SPNE 9912)) | MIC [1] | MIC [2] | MIC (S. pyogenes (SPYO 152)) | MIC [3] | MIC (S. aureus (SAUR 9213)) | MIC (E. Faecium (EFAE 12712)) | MIC (S. aureus (SAUR 31583)) | MIC [4]
CCC(=S)NC[C@H]1CN(c2ccc(N3CCN(C(=O)COc4ccc(CN(CC)CC)cc4)CC3)c(F)c2)C(=O)O1 [Compound 9] | 2 µg/mL (≈ 3.41 µM) | 0.25 µg/mL (≈ 0.427 µM) | 2 µg/mL (≈ 3.41 µM) | 32 µg/mL (≈ 54.6 µM) | 0.25 µg/mL (≈ 0.427 µM) | 32 µg/mL (≈ 54.6 µM) | 4 µg/mL (≈ 6.83 µM) | 2 µg/mL (≈ 3.41 µM) | 32 µg/mL (≈ 54.6 µM) | 4 µg/mL (≈ 6.83 µM)
CCC(=S)NC[C@H]1CN(c2ccc(N3CCN(C(=O)COc4ccc(CN(C)C)cc4)CC3)c(F)c2)C(=O)O1 [Compound 13] | 1 µg/mL (≈ 1.79 µM) | 0.125 µg/mL (≈ 0.224 µM) | 1 µg/mL (≈ 1.79 µM) | 16 µg/mL (≈ 28.7 µM) | 0.25 µg/mL (≈ 0.448 µM) | 16 µg/mL (≈ 28.7 µM) | 8 µg/mL (≈ 14.3 µM) | 2 µg/mL (≈ 3.59 µM) | 16 µg/mL (≈ 28.7 µM) | 4 µg/mL (≈ 7.17 µM)
CCC(=S)NC[C@H]1CN(c2ccc(N3CCN(C(=O)COc4ccc(CN5CCOCC5)cc4)CC3)c(F)c2)C(=O)O1 [Compound 17] | 1 µg/mL (≈ 1.67 µM) | 0.25 µg/mL (≈ 0.417 µM) | 2 µg/mL (≈ 3.33 µM) | 32 µg/mL (≈ 53.4 µM) | 0.5 µg/mL (≈ 0.834 µM) | 64 µg/mL (≈ 107 µM) | 8 µg/mL (≈ 13.3 µM) | 2 µg/mL (≈ 3.33 µM) | 32 µg/mL (≈ 53.4 µM) | 4 µg/mL (≈ 6.67 µM)
CCN(CC)Cc1ccc(OCC(=O)N2CCN(c3ccc(N4C[C@H](CNC(=S)C5CC5)OC4=O)cc3F)CC2)cc1 [Compound 10] | 2 µg/mL (≈ 3.35 µM) | 0.25 µg/mL (≈ 0.418 µM) | 1 µg/mL (≈ 1.67 µM) | 32 µg/mL (≈ 53.5 µM) | 0.25 µg/mL (≈ 0.418 µM) | 32 µg/mL (≈ 53.5 µM) | 2 µg/mL (≈ 3.35 µM) | 2 µg/mL (≈ 3.35 µM) | 8 µg/mL (≈ 13.4 µM) | 2 µg/mL (≈ 3.35 µM)
CCN(CC)Cc1ccc(OCC(=O)N2CCN(c3ccc(N4C[C@H](CNC(C)=O)OC4=O)cc3F)CC2)cc1 [Compound 8] | 32 µg/mL (≈ 57.6 µM) | 2 µg/mL (≈ 3.6 µM) | 8 µg/mL (≈ 14.4 µM) | > 64 µg/mL | 2 µg/mL (≈ 3.6 µM) | > 64 µg/mL | 32 µg/mL (≈ 57.6 µM) | 32 µg/mL (≈ 57.6 µM) | > 64 µg/mL | 32 µg/mL (≈ 57.6 µM)
CCC(=S)NC[C@H]1CN(c2ccc(N3CCN(C(=O)COc4ccc(CN5CCN(C)CC5)cc4)CC3)c(F)c2)C(=O)O1 [Compound 22] | – | 0.125 µg/mL (≈ 0.204 µM) | 2 µg/mL (≈ 3.26 µM) | 16 µg/mL (≈ 26.1 µM) | 0.25 µg/mL (≈ 0.408 µM) | 32 µg/mL (≈ 52.2 µM) | 8 µg/mL (≈ 13.1 µM) | 2 µg/mL (≈ 3.26 µM) | 32 µg/mL (≈ 52.2 µM) | 2 µg/mL (≈ 3.26 µM)
CN1CCN(Cc2ccc(OCC(=O)N3CCN(c4ccc(N5C[C@H](CNC(=S)C6CC6)OC5=O)cc4F)CC3)cc2)CC1 [Compound 23] | – | 0.5 µg/mL (≈ 0.8 µM) | 8 µg/mL (≈ 12.8 µM) | 64 µg/mL (≈ 102 µM) | 0.5 µg/mL (≈ 0.8 µM) | 64 µg/mL (≈ 102 µM) | 16 µg/mL (≈ 25.6 µM) | 8 µg/mL (≈ 12.8 µM) | > 64 µg/mL | 32 µg/mL (≈ 51.2 µM)
CN(C)Cc1ccc(OCC(=O)N2CCN(c3ccc(N4C[C@H](CNC(=S)C5CC5)OC4=O)cc3F)CC2)cc1 [Compound 2] | 1 µg/mL (≈ 1.76 µM) | 0.125 µg/mL (≈ 0.219 µM) | 1 µg/mL (≈ 1.76 µM) | 8 µg/mL (≈ 14 µM) | 0.125 µg/mL (≈ 0.219 µM) | 16 µg/mL (≈ 28.1 µM) | 2 µg/mL (≈ 3.51 µM) | 1 µg/mL (≈ 1.76 µM) | 4 µg/mL (≈ 7.02 µM) | 2 µg/mL (≈ 3.51 µM)

From patent publication US7141570B2, “N-aryl-2-oxazolidinone-5-carboxamides and their derivatives” (Pharmacia & Upjohn Company, priority 2002, dated 2006)
